Reference: PMC2996881 (Biochemistry, 2010)

Tests used:
CgTHI6 [1] = biological target: T1, CgTHI6 (Nakaseomyces glabratus, UniProt Q6FV03); assay: X-ray crystal structure; assay type: binding; conditions: ThiM (C-terminal) domain ATP site; Mg2+
T1 sequence (Q6FV03 1-540): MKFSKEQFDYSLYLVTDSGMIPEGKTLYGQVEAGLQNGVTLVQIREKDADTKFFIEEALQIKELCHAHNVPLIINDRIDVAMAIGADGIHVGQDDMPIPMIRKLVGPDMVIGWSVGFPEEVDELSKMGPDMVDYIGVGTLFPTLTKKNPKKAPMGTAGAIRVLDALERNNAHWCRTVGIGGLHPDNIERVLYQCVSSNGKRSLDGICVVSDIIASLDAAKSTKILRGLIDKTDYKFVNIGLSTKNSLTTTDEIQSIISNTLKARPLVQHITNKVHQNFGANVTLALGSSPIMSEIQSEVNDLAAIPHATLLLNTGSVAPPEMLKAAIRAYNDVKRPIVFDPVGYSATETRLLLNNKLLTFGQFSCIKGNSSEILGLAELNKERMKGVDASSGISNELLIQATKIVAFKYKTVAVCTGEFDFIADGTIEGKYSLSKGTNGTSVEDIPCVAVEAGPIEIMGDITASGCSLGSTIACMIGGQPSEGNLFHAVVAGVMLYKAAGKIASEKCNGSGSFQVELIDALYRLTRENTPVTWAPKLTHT

CgTHI6 [2] = biological target: T1, CgTHI6; assay: HPLC of Thz-P formation at […] nm; assay type: biochemical; conditions: ThiM activity; 2 mM ATP, 1.2 mM Thz, 2 mM MgSO4, room temperature, 2 h
CgTHI6 [3] = biological target: T1, CgTHI6; assay: HPLC of ThMP formation at […] nm; assay type: biochemical; conditions: TPS activity; 1 mM HMP-PP, 1.2 mM Thz, 2 mM ATP, 2 mM MgSO4, room temperature, 2 h

Nc1ncnc2c1ncn2[C@@H]1O[C@H](COP(=O)(O)OP(=O)(O)CP(=O)(O)O)[C@@H](O)[C@H]1O [AMP-PCP]
X-ray crystal structure (soaked, 3.3 A with Thz; 2.6 A with ThMP) (CgTHI6 [1]): The ATP binding site is inferred from the complex containing the non-hydrolizable ATP analogue, AMP-PCP

Nc1ncnc2c1ncn2[C@@H]1O[C@H](COP(=O)(O)OP(=O)(O)OP(=O)(O)O)[C@@H](O)[C@H]1O [ATP]
HPLC of Thz-P formation at 261 nm (CgTHI6 [2]): the purified protein was incubated with Thz and ATP, formation of Thz-P was noted

Cc1ncc(COP(=O)(O)OP(=O)(O)O)c(N)n1 [HMP-PP, 4-amino-5-hydroxymethyl-2-methylpyrimidine pyrophosphate]
HPLC of ThMP formation at 261 nm (CgTHI6 [3]): Incorporation of HMP-PP in the same reaction resulted in the production of ThMP
